Assay results from patent US20230107941A1, “HEPATITIS B CAPSID ASSEMBLY MODULATORS” (Venatorx Pharmaceuticals, Inc., priority 2019, published 2023).

Experiments:
HBV = assay: In vitro antiviral assay: anti-HBV replication in HepAD38 cells (extracellular HBV DNA by QPCR); format: cell-based, hepatitis B virus (genotype D, serotype ayw); settings: Hepatitis B virus, HePAD38, 168 h, 7 days incubation, extracellular HBV DNA by QPCR, read-out: Anti-HBV EC50
In short: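 Read-out is extracellular HBV DNA (copies/mL, QPCR standard curve) after 7-day exposure of tet-free HepAD38 cells to 10-fold dilutions from 1 μM down to 10 pM. Values normalised to DMSO vehicle; EC50 from 4-parameter nonlinear regression, with entecavir validating each run.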

[1] = In vitro cytotoxicity assay (MTT cell viability) in HepG2 cells; format: cell-based, human; settings: human
In short: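 CC50 was derived by 4-parameter fit of viability relative to vehicle controls, measured as MTT formazan absorbance at 492 nm after 3–4 h of reagent and DMSO solubilization. Before that, HepG2 cells seeded overnight at 20,000/well were incubated 7 days at 37°C with compound from 30 μM down to 1.0 nM in half-log steps.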

Q: What does the source list for `CCc1c(C(=O)Nc2ccc(F)c(C)c2)c(C)n(C)c1C(=O)C(=O)N[C@H](C)C(F)(F)F` [Example 90, (R)-4-ethyl-N-(4-fluoro-3-methylphenyl)-1,2-dimethyl-5-(2-oxo-2-((1,1,1-trifluoropropan-2-yl)amino)acetyl)-1H-pyrrole-3-carboxamide]?
A: EC50 (HBV): < 0.05 µM; CC50 at 7 days [1]: 5 to 30 µM

Q: For `Cc1c(C(=O)N2CCC(C)(O)CC2)c(C)n(C)c1C(=O)C(=O)NC(C)(C)C` [Example 61, N-(tert-butyl)-2-(4-(4-hydroxy-4-methylpiperidine-1-carbonyl)-1,3,5-trimethyl-1H-pyrrol-2-yl)-2-oxoacetamide], which EC50 (HBV) is on record?
A: 0.5 to 1 µM

Q: And the CC50 at 7 days [1]?
A: > 30 µM

Q: With `Cc1c(C(=O)Nc2ccc(F)c(Br)c2)c(C)n(C)c1C(=O)C(=O)NC(C)(C)C` [Example 60, N-(3-bromo-4-fluorophenyl)-5-(2-(tert-butylamino)-2-oxoacetyl)-1,2,4-trimethyl-1H-pyrrole-3-carboxamide] as the compound, how does the EC50 (HBV) read?
A: < 0.05 µM

Q: And the CC50 at 7 days [1]?
A: > 30 µM

Q: With `Cc1cc(NC(=O)c2c(C)c(C(=O)C(=O)NC3CC(S(C)(=O)=O)C3)n(C)c2C)ccc1F` (stereo not shown) [Example 31, N-(4-fluoro-3-methylphenyl)-1,2,4-trimethyl-5-(2-(((1s,3s)-3-(methylsulfonyl)cyclobutyl)amino)-2-oxoacetyl)-1H-pyrrole-3-carboxamide] as the compound, how does the EC50 (HBV) read?
A: < 0.05 µM

Q: And the CC50 at 7 days [1]?
A: > 30 µM

Q: For `Cc1cc(NC(=O)c2c(C)c(C(=O)C(=O)N3CCOCC3)n(C)c2C)ccc1F` [Example 187, N-(4-fluoro-3-methylphenyl)-1,2,4-trimethyl-5-(2-morpholino-2-oxoacetyl)-1H-pyrrole-3-carboxamide], which EC50 (HBV) is on record?
A: 0.5 to 1 µM

Q: What about the CC50 at 7 days [1] of the same compound?
A: > 30 µM

Q: Which EC50 (HBV) does the source give for `Cc1cc(NC(=O)c2c(C(C)C)c(C(=O)C(=O)N[C@]3(C)C[C@H](O)C3)n(C)c2C)ccc1F` [Example 93, N-(4-fluoro-3-methylphenyl)-5-(2-(((1s,3s)-3-hydroxy-1-methylcyclobutyl)amino)-2-oxoacetyl)-4-isopropyl-1,2-dimethyl-1H-pyrrole-3-carboxamide] here?
A: > 1 µM

Q: And the CC50 at 7 days [1]?
A: > 30 µM

Q: Which results are given for `Cc1cc(NC(=O)c2c(C)c(C(=O)C(=O)NC3(C)CNC(=O)C34CC4)n(C)c2C)ccc1F` (stereo not shown) [Example 81, N-(4-fluoro-3-methylphenyl)-1,2,4-trimethyl-5-(2-((7-methyl-4-oxo-5-azaspiro[2.4]heptan-7-yl)amino)-2-oxoacetyl)-1H-pyrrole-3-carboxamide]?
A: EC50 (HBV): < 0.05 µM; CC50 at 7 days [1]: > 30 µM

Q: Which EC50 (HBV) does the source give for `Cc1c(C(=O)Nc2ccc(F)c(C3CC3)c2)c(C)n(C)c1C(=O)C(=O)NC(C)(C)C` [Example 138, 5-(2-(tert-butylamino)-2-oxoacetyl)-N-(3-cyclopropyl-4-fluorophenyl)-1,2,4-trimethyl-1H-pyrrole-3-carboxamide] here?
A: < 0.05 µM

Q: What about the CC50 at 7 days [1] of the same compound?
A: > 30 µM

Q: Which results are given for `Cc1cc(NC(=O)c2c(C)c(C(=O)C(=O)NCC(C)(C)O)n(C)c2CC2CC2)ccc1F` [Example 127, 2-(cyclopropylmethyl)-N-(4-fluoro-3-methylphenyl)-5-(2-((2-hydroxy-2-methylpropyl)amino)-2-oxoacetyl)-1,4-dimethyl-1H-pyrrole-3-carboxamide]?
A: EC50 (HBV): < 0.05 µM; CC50 at 7 days [1]: 5 to 30 µM

Q: For `CC(=O)N1CC[C@H](NC(=O)C(=O)c2c(C)c(C(=O)Nc3ccc(F)c(C)c3)c(C)n2C)C[C@H]1C` [Example 78, 5-(2-(((2R,4S)-1-acetyl-2-methylpiperidin-4-yl)amino)-2-oxoacetyl)-N-(4-fluoro-3-methylphenyl)-1,2,4-trimethyl-1H-pyrrole-3-carboxamide], which EC50 (HBV) is on record?
A: < 0.05 µM

Q: What about the CC50 at 7 days [1] of the same compound?
A: > 30 µM

Q: With `Cc1cc(NC(=O)c2c(C)c(C(=O)C(=O)N[C@]3(C)CC[C@H](O)CC3)n(C)c2-c2nccs2)ccc1F` [Example 176, N-(4-fluoro-3-methylphenyl)-5-(2-(((1s,4s)-4-hydroxy-1-methylcyclohexyl)amino)-2-oxoacetyl)-1,4-dimethyl-2-(thiazol-2-yl)-1H-pyrrole-3-carboxamide] as the compound, how does the EC50 (HBV) read?
A: 0.05 to 0.499 µM

Q: What about the CC50 at 7 days [1] of the same compound?
A: > 30 µM

Q: Which EC50 (HBV) does the source give for `Cc1cc(NC(=O)c2c(C)c(C(=O)C(=O)NCC(C)(C)O)n(C)c2-c2cccnc2)ccc1F` [Example 154, N-(4-fluoro-3-methylphenyl)-5-(2-((2-hydroxy-2-methylpropyl)amino)-2-oxoacetyl)-1,4-dimethyl-2-(pyridin-3-yl)-1H-pyrrole-3-carboxamide] here?
A: 0.05 to 0.499 µM

Q: And the CC50 at 7 days [1]?
A: > 30 µM

Q: For `Cc1cc(NC(=O)c2c(C)c(C(=O)C(=O)N[C@H]3CC[C@@H](S(C)(=O)=O)CC3)n(C)c2CC2CC2)ccc1F` [Example 124, 2-(cyclopropylmethyl)-N-(4-fluoro-3-methylphenyl)-1,4-dimethyl-5-(2-(((1s,4s)-4-(methylsulfonyl)cyclohexyl)amino)-2-oxoacetyl)-1H-pyrrole-3-carboxamide], which EC50 (HBV) is on record?
A: 0.05 to 0.499 µM

Q: What about the CC50 at 7 days [1] of the same compound?
A: > 30 µM

Q: With `CCc1c(C(=O)Nc2ccc(F)c(C)c2)c(C)n(C)c1C(=O)C(=O)N[C@]1(C)C[C@H](O)C1` [Example 87, 4-ethyl-N-(4-fluoro-3-methylphenyl)-5-(2-(((1s,3s)-3-hydroxy-1-methylcyclobutyl)amino)-2-oxoacetyl)-1,2-dimethyl-1H-pyrrole-3-carboxamide] as the compound, how does the EC50 (HBV) read?
A: < 0.05 µM

Q: What about the CC50 at 7 days [1] of the same compound?
A: > 30 µM

Q: Which results are given for `Cc1c(C(=O)NC2COCCOC2)c(C)n(C)c1C(=O)C(=O)NC(C)(C)C` [Example 48, 5-(2-(tert-butylamino)-2-oxoacetyl)-N-(1,4-dioxepan-6-yl)-1,2,4-trimethyl-1H-pyrrole-3-carboxamide]?
A: EC50 (HBV): > 1 µM; CC50 at 7 days [1]: > 30 µM

Q: What does the source list for `Cc1c(C(=O)Nc2cc(Cl)nc(Cl)c2)c(C)n(C)c1C(=O)C(=O)N[C@H]1CC[C@@H](O)CC1` [Example 2, N-(2,6-dichloropyridin-4-yl)-5-(2-(((1s,4s)-4-hydroxycyclohexyl)amino)-2-oxoacetyl)-1,2,4-trimethyl-1H-pyrrole-3-carboxamide]?
A: EC50 (HBV): < 0.05 µM; CC50 at 7 days [1]: > 30 µM

Q: Which results are given for `Cc1cc(NC(=O)c2c(C)c(C(=O)C(=O)NCC(C)(C)O)n(C)c2C2CCCC2)ccc1F` [Example 135, 2-cyclopentyl-N-(4-fluoro-3-methylphenyl)-5-(2-((2-hydroxy-2-methylpropyl)amino)-2-oxoacetyl)-1,4-dimethyl-1H-pyrrole-3-carboxamide]?
A: EC50 (HBV): 0.05 to 0.499 µM; CC50 at 7 days [1]: > 30 µM

Q: What does the source list for `CCc1c(C(=O)Nc2ccc(F)c(C)c2)c(C)n(C)c1C(=O)C(=O)N[C@H]1CC[C@@H](S(C)(=O)=O)CC1` [Example 89, 4-ethyl-N-(4-fluoro-3-methylphenyl)-1,2-dimethyl-5-(2-(((1s,4s)-4-(methylsulfonyl)cyclohexyl)amino)-2-oxoacetyl)-1H-pyrrole-3-carboxamide]?
A: EC50 (HBV): < 0.05 µM; CC50 at 7 days [1]: > 30 µM

Q: What does the source list for `Cc1cc(NC(=O)c2c(C)c(C(=O)C(=O)N[C@H]3CC[C@@H](O)CC3)n(C)c2-c2nccs2)ccc1F` [Example 177, N-(4-fluoro-3-methylphenyl)-5-(2-(((1s,4s)-4-hydroxycyclohexyl)amino)-2-oxoacetyl)-1,4-dimethyl-2-(thiazol-2-yl)-1H-pyrrole-3-carboxamide]?
A: EC50 (HBV): > 1 µM; CC50 at 7 days [1]: > 30 µM

Q: For `Cc1cc(NC(=O)c2c(C)c(C(=O)C(=O)NC3(C)CCN(CC(=O)O)CC3)n(C)c2C)ccc1F` [Example 27, 2-(4-(2-(4-((4-fluoro-3-methylphenyl)carbamoyl)-1,3,5-trimethyl-1H-pyrrol-2-yl)-2-oxoacetamido)-4-methylpiperidin-1-yl)acetic acid], which EC50 (HBV) is on record?
A: 0.5 to 1 µM

Q: What about the CC50 at 7 days [1] of the same compound?
A: > 30 µM

Q: What does the source list for `Cc1c(C(=O)Nc2ccc(F)c(C#N)c2)c(C)n(C)c1C(=O)C(=O)N[C@H]1CC[C@@H](O)CC1` [Example 17, N-(3-cyano-4-fluorophenyl)-5-(2-(((1s,4s)-4-hydroxycyclohexyl)amino)-2-oxoacetyl)-1,2,4-trimethyl-1H-pyrrole-3-carboxamide]?
A: EC50 (HBV): < 0.05 µM; CC50 at 7 days [1]: > 30 µM

Q: For `Cc1c(C(=O)Nc2cccc(Cl)n2)c(C)n(C)c1C(=O)C(=O)N[C@H](C)C(F)(F)F` [Example 77, (R)-N-(6-chloropyridin-2-yl)-1,2,4-trimethyl-5-(2-oxo-2-((1,1,1-trifluoropropan-2-yl)amino)acetyl)-1H-pyrrole-3-carboxamide], which EC50 (HBV) is on record?
A: 0.05 to 0.499 µM

Q: What about the CC50 at 7 days [1] of the same compound?
A: > 30 µM

Q: Which EC50 (HBV) does the source give for `Cc1c(C(=O)Nc2ccc(F)c(-c3nc[nH]n3)c2)c(C)n(C)c1C(=O)C(=O)NC(C)(C)C` [Example 139, 5-(2-(tert-butylamino)-2-oxoacetyl)-N-(4-fluoro-3-(1H-1,2,4-triazol-3-yl)phenyl)-1,2,4-trimethyl-1H-pyrrole-3-carboxamide] here?
A: > 1 µM

Q: And the CC50 at 7 days [1]?
A: > 30 µM

Q: Which EC50 (HBV) does the source give for `CC(=O)N1CC[C@@H](NC(=O)C(=O)c2c(C)c(C(=O)Nc3ccc(F)c(C)c3)c(C)n2C)C(F)(F)C1` [Example 148, (R)-5-(2-((1-acetyl-3,3-difluoropiperidin-4-yl)amino)-2-oxoacetyl)-N-(4-fluoro-3-methylphenyl)-1,2,4-trimethyl-1H-pyrrole-3-carboxamide] here?
A: < 0.05 µM

Q: And the CC50 at 7 days [1]?
A: > 30 µM

Q: With `Cc1cc(NC(=O)c2c(C)c(C(=O)C(=O)N[C@H]3CCN(CC(=O)O)C3)n(C)c2C)ccc1F` [Example 28, (S)-2-(3-(2-(4-((4-fluoro-3-methylphenyl)carbamoyl)-1,3,5-trimethyl-1H-pyrrol-2-yl)-2-oxoacetamido)pyrrolidin-1-yl)acetic acid] as the compound, how does the EC50 (HBV) read?
A: > 1 µM

Q: What about the CC50 at 7 days [1] of the same compound?
A: > 30 µM

Q: Which EC50 (HBV) does the source give for `Cc1cc(NC(=O)c2c(C)c(C(=O)C(=O)NC3(CO)CCN(C(=O)c4cn(C)nc4C(F)F)CC3)n(C)c2C)ccc1F` [Example 75, 5-(2-((1-(3-(difluoromethyl)-1-methyl-1H-pyrazole-4-carbonyl)-4-(hydroxymethyl)piperidin-4-yl)amino)-2-oxoacetyl)-N-(4-fluoro-3-methylphenyl)-1,2,4-trimethyl-1H-pyrrole-3-carboxamide] here?
A: < 0.05 µM

Q: And the CC50 at 7 days [1]?
A: > 30 µM
